Results as given in PMC6284057, “Combined Antibacterial Effects of Goat Cathelicidins With Different Mechanisms of Action” (Frontiers in Microbiology, 2018).
No end group written: not given here.

Tests used:
HEK293T cells = experiment: Cytotoxicity (MTT assay); format: cell-based, human; details: 24 h incubation, 3 independent experiments, read-out: IC50 against HEK293T cells
Protocol: Hemolytic activity of the peptides was tested against the fresh suspension of human red blood cells (hRBC) using the hemoglobin release assay as described previously ([Panteleev et al., 2016]). Three experiments were performed with the hRBC from blood samples obtained from independent donors. The obtained data were represented as average means with standard deviations. The cytotoxicity of the peptides against HEK293T (transformed human embryonic kidney cells) and HEF (human embryonic fibroblasts) cell lines was studied using the colorimetric 3-(4,5-dimethylthiazol-2-yl)-2,5-diphenyltetrazolium bromide (MTT) dye reduction assay according to ([Panteleev and Ovchinnikova, 2017]). Three independent experiments were performed for each peptide. Half maximal inhibitory concentration (IC50) values were estimated as described previously ([Kuzmin et al., 2018]).

[1] = test system: P. aeruginosa (XDR CI 1049); experiment: microbe, parasite or virus in culture; format: cell-based, Pseudomonas aeruginosa; details: Table S2, XDR clinical isolate; NaCl content of medium not stated; read-out: Minimum inhibitory concentration
Protocol: (§1) Antimicrobial assay was performed as described previously ([Panteleev et al., 2017b]). Briefly, mid-log phase bacterial test cultures were diluted with the 2× Mueller-Hinton broth (MH, Sigma) supplemented with 1.8% NaCl or without it so that to reach a final cell concentration of 10^6 CFU/ml. 50 μl aliquots of the obtained bacterial suspension were added to 50 μl of the peptide solutions serially diluted with 0.1% water solution of bovine serum albumin (BSA) in 96-well flat-bottom polystyrene microplates (Eppendorf #0030730011). After incubation at 37°C and 900 rpm for 24 h the minimum inhibitory concentrations (MIC) were determined as the lowest peptide concentrations that prevented growth of a test microorganism observed as visible turbidity. The results were expressed as the median values determined on the basis of at least three independent experiments performed in triplicate.

[2] = test system: P. mirabilis (XDR CI 3423); experiment: microbe, parasite or virus in culture; format: cell-based, Proteus mirabilis; details: Table S2, XDR clinical isolate; NaCl content of medium not stated; read-out: Minimum inhibitory concentration
Protocol: as §1

E. coli (CI 214) = format: cell-based, Escherichia coli; details: CI 214, 24 h
Procedure, shortened: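 First, mid-log bacteria are diluted with 2× MH broth (plus or minus 1.8% NaCl) to reach 10^6 CFU/ml final. Next, equal parts are combined with peptide dilution series prepared in 0.1% BSA. Plates then shake at 900 rpm, 37°C, for 24 h before turbidity is scored.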

E. faecalis ATCC 29212 = format: cell-based, Enterococcus faecalis; details: ATCC 29212, 24 h
Protocol: Briefly, mid-log phase bacterial test cultures were diluted with the 2× Mueller-Hinton broth (MH, Sigma) supplemented with 1.8% NaCl or without it so that to reach a final cell concentration of 10^6 CFU/ml. 50 μl aliquots of the obtained bacterial suspension were added to 50 μl of the peptide solutions serially diluted with 0.1% water solution of bovine serum albumin (BSA) in 96-well flat-bottom polystyrene microplates (Eppendorf #0030730011). […] The results were expressed as the median values determined on the basis of at least three independent experiments performed in triplicate.

## GRFKRFRKKLKRLWHKVGPFVGPILHY [ChMAP-28]
HEK293T cells
  IC50: ~3.5 µM
[1]
  MIC: 0.5 µM
[2]
  MIC: 0.5 µM

## RRLRPRRPRLPRPRPRPRPRPR [mini-ChBac7.5Nα]
E. coli (CI 214)
  MIC: 4 µM
E. faecalis ATCC 29212
  Minimum inhibitory concentration: >32 µM
